Source: patent US12030865B2, “Pesticidal mixtures comprising indazoles” (FMC Corporation, priority 2018, dated 2024)

Key:
Type in all cases: in vivo
[1] = system: cotton melon aphid (Aphis gossypii (Glover)); test: Test B: control of cotton melon aphid on pre-infested cotton plant, spray; settings: 144 h, sprayed at 50 ppm, visually assessed after 6 days
Method: (§1) Test compounds were formulated using a solution containing 10% acetone, 90% water and 300 ppm X-77® Spreader Lo-Foam Formula non-ionic surfactant containing alkylarylpolyoxyethylene, free fatty acids, glycols and isopropanol (Loveland Industries, Inc. Greeley, Colorado, USA). The formulated compounds were applied in 1 mL of liquid through a SUJ2 atomizer nozzle with 1/8 JJ custom body (Spraying Systems Co. Wheaton, Illinois, USA) positioned 1.27 cm (0.5 inches) above the top of each test unit. Test compounds were sprayed at the rates indicated, and each test was replicated three times.
For evaluating control of cotton melon aphid (Aphis gossypii (Glover)) through contact and/or systemic means, the test unit consisted of a small open container with a 6-7-day-old cotton plant inside. This was pre-infested with 30-40 insects on a piece of leaf according to the cut-leaf method, and the soil of the test unit was covered with a layer of sand.
Test compounds were formulated and sprayed at 250 and/or 50 ppm. After spraying, the test units were maintained in a growth chamber for 6 days at 19° C. and 70% relative humidity. Each test unit was then visually assessed for insect mortality.

[2] = system: Western Flower Thrips (Frankliniellla occidentalis (Pergande)); test: Test D: control of Western Flower Thrips on Soleil bean plant, spray; settings: adult thrips, held 6 days
Method: as §1
For evaluating control of the Western Flower Thrips (Frankliniellla occidentalis (Pergande)) through contact and/or systemic means, the test unit consisted of a small open container with a 5-7-day-old Soleil bean plant inside.
Test compounds were formulated and sprayed at 250 and/or 50 ppm. After spraying, the test units were allowed to dry for 1 hour, and then 22-27 adult thrips were added to each unit. A black, screened cap was placed on top, and the test units were held for 6 days at 25° C. and 45-55% relative humidity.

[3] = system: sweetpotato whitefly (Bemisia tabaci (Gennadius)); test: Test C: control of sweetpotato whitefly on egg-infested cotton plant, spray; settings: 312 h, cotton plant with eggs, visually assessed after 13 days; for mortality at 250 ppm: sprayed at 250 ppm
Method: as §1
For evaluating control of the sweetpotato whitefly (Bemisia tabaci (Gennadius)) through contact and/or systemic means, the test unit consisted of a small open container with a 12-14-day-old cotton plant inside. Prior to the spray application, both cotyledons were removed from the plant, leaving one true leaf for the assay. Adult whiteflies were allowed to lay eggs on the plant and then were removed from the test unit. Cotton plants infested with at least 15 eggs were submitted to the test for spraying.
Test compounds were formulated and sprayed at 250 and/or 50 ppm. After spraying, the test units were allowed to dry for 1 hour. The cylinders were then removed, and the units were taken to a growth chamber and held for 13 days at 28° C. and 50-70% relative humidity. Each test unit was then visually assessed for insect mortality.

[4] = system: green peach aphid (Myzus persicae (Sulzer)); test: Test A: control of green peach aphid on pre-infested radish plant, spray; settings: 144 h, visually assessed after 6 days; for mortality at 50 ppm: sprayed at 50 ppm; for mortality at 250 ppm: sprayed at 250 ppm
Method: as §1
For evaluating control of green peach aphid (Myzus persicae (Sulzer)) through contact and/or systemic means, the test unit consisted of a small open container with a 12-15-day-old radish plant inside. This was pre-infested by placing on a leaf of the test plant 30-40 aphids on a piece of leaf excised from a culture plant (cut-leaf method). The aphids moved onto the test plant as the leaf piece desiccated. After pre-infestation, the soil of the test unit was covered with a layer of sand.
Test compounds were formulated and sprayed at 250 and/or 50 ppm. After spraying of the formulated test compound, each test unit was allowed to dry for 1 hour and then a black, screened cap was placed on top. The test units were held for 6 days in a growth chamber at 19-21° C. and 50-70% relative humidity. Each test unit was then visually assessed for insect mortality.

| SMILES | mortality at 50 ppm [1] [%] | control efficacy (30% or less plant damage and/or 100% mortality) ([2]; sprayed at 50 ppm) | control efficacy (30% or less plant damage and/or 100% mortality) ([2]; sprayed at 250 ppm) | mortality at 50 ppm ([3]; sprayed at 50 ppm) [%] | mortality at 250 ppm [3] [%] | mortality at 50 ppm [4] [%] | mortality at 250 ppm [4] [%] |
| --- | --- | --- | --- | --- | --- | --- | --- |
| O=C(NC1(C(F)F)CC1)c1cccc2nn(-c3cccnc3)cc12 [Compound 1, N-[1-(difluoromethyl)cyclopropyl]-2-(3-pyridinyl)-2H-indazole-4-carboxamide] | ≥ 80 | very good to excellent levels of control efficacy | very good to excellent levels of control efficacy | ≥ 50 | ≥ 50 | ≥ 80 | ≥ 80 |
| CSCC(C)(C)NC(=O)c1ccc(F)c2nn(-c3cccnc3)cc12 [Compound 2a, N-[1,1-dimethyl-2-(methylthio)ethyl]-7-fluoro-2-(3-pyridinyl)-2H-indazole-4-carboxamide] | ≥ 80 | very good to excellent levels of control efficacy | very good to excellent levels of control efficacy |  |  | ≥ 80 | ≥ 80 |
| C[S+]([O-])CC(C)(C)NC(=O)c1ccc(F)c2nn(-c3cccnc3)cc12 (stereo not shown) [Compound 2b, N-[1,1-dimethyl-2-(methylsulfinyl)ethyl]-7-fluoro-2-(3-pyridinyl)-2H indazole-4-carboxamide] | ≥ 80 | very good to excellent levels of control efficacy | very good to excellent levels of control efficacy |  | ≥ 50 | ≥ 80 |  |
| CC(C)(CS(C)(=O)=O)NC(=O)c1ccc(F)c2nn(-c3cccnc3)cc12 [Compound 2c, N-[1,1-dimethyl-2-(methylsulfonyl)ethyl]-7-fluoro-2-(3-pyridinyl)-2H indazole-4-carboxamide] | ≥ 80 |  |  |  |  | ≥ 80 |  |
